Reference: patent publication US9718781B2, “Methods and compounds for treating proliferative disorders and viral infections” (University College Dublin, National University of Ireland, …, priority 2012, dated 2017)
Where two headings read alike, the source gives them in different places.

Experiments:
TPα = target: T1, TPα (Homo sapiens, UniProt P21731); assay: U46619-induced [Ca2+]i mobilization in HEK.TPα cells; format: cell-based; conditions: for remaining activity at 1 µM: antagonist 1 μM, read-out: Percentage of Control, TPα, 1 μM; for remaining activity at 1 µM / remaining activity at 10 µM: % of agonist-induced response in vehicle-treated cells; for remaining activity at 10 µM: antagonist 10 μM, read-out: Percentage of Control, TPα, 10 μM
T1 construct: expressed in transfected cells
T1 sequence (P21731 1-343): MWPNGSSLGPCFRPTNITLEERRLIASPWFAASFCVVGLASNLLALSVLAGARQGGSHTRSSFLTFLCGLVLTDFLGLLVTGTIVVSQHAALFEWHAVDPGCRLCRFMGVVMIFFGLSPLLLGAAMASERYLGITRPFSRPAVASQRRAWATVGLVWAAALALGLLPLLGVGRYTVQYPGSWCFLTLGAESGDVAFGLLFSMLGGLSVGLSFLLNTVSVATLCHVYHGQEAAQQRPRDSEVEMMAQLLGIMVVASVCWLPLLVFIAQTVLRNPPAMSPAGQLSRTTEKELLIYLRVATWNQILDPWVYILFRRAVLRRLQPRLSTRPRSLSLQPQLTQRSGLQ
Outline: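 HEK293 cells loaded with 3 μM Fluo-4 (1 h, 25° C.) in Krebs-HEPES pH 7.4, then pre-incubated with compound for 10 min. Fluorescence at 520 nm tracked after injection of 1 μM U46619. Signal calibrated by Fmax (2% Triton X100) and Fmin (1 mM EGTA).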

platelets in whole blood = assay: U46619-mediated platelet aggregation in whole blood (Sysmex haematological analyzer); format: cell-based, human; conditions: antagonist 0.1 μM, 1 μM U46619
Protocol: From an efficacy point of view, this is an important assay and, physiologically, relevant with respect to the therapeutic target.
Initially, the Sysmex haematological analyzer was used to examine the effect of the TP antagonists at a single concentration (0.1 μM) on U46619 (1 μM)-mediated platelet aggregation in whole blood.
FIG. 3 illustrates effects of the TP antagonist compounds on U46619-mediated platelet aggregation. Blood was taken form healthy volunteer by venupuncture into syringes containing 3.8% sodium citrate, 10 μM Indomethacin, such that the ratio of anticoagulant:blood was 1:9. The blood was aliquoted and incubated for 10 min with TP20 and selected NTP compounds, as indicated, where the antagonist were used at 0.1 μM prior to stimulation with 1 μM U46619 for 3 min. The blood was fixed with formaldehyde and platelet numbers counted using the Sysmex haematological analyzer. Data is presented as the mean percentage of control or non-treated blood sample (Percentage of Control; %) and represent data from 3 independent experiments were samples were treated in duplicate.

human platelets = assay: ADP-induced platelet aggregation of human platelets ex vivo; format: cell-based
Excerpt: The method of assessing platelet aggregation also allows evaluation of the effect of the compounds of the invention on platelet aggregation upon stimulation by other agonists, e.g., adenosine diphosphate (ADP) and thrombin.

[1] = Phase 1 safety/tolerability study, repeat oral dosing; conditions: 360 μg/kg oral gavage twice daily
Excerpt: Data is presented as mean body weight (±S.E.M.; FIG. 12A) or as mean percentage change in body weight (±S.E.M.; FIG. 12B) as a function of time.

[2] = side-by-side comparison, n=5, Table 2.6, read-out: IC50 values for inhibition of U46619-mediated [Ca2+]i, TPα

| SMILES | remaining activity at 1 µM (TPα; 1 μM U46619) [%] | remaining activity at 10 µM (TPα; 1 μM U46619) [%] | IC50 (TPα; [2]) [µM] | inhibition of U46619-mediated reduction in platelet number (platelets in whole blood) | effect on ADP-induced platelet aggregation (human platelets) | IC50 (TPα; HEK.TPα cells, 1 μM U46619, Table 2, read-out: IC50 data for U46619-mediated [Ca2+]i mobilization, TPα) [µM] | TPα:TPβ Selectivity Ratio (TPα; IC50 TPα/IC50 TPβ) | tolerability [1] | survival on repeat dosing ([1]; 14 days monitoring) | weight loss ([1]; at Day 7) [%] |
| --- | --- | --- | --- | --- | --- | --- | --- | --- | --- | --- |
| COc1ccc(-c2cccc(Oc3ccc(C#N)cc3S(=O)(=O)NC(=O)NC(C)(C)C)c2)cc1 [NTP4, N-(tert-butylcarbamoyl)-5-cyano-2-((4′-methoxy-[1,1′-biphenyl]-3-yl)oxy)benzenesulfonamide] | 46.1 ± 3.87 | 19.9 ± 2.13 | 0.593 ± 0.0836 | approx. 50% |  |  |  |  |  |  |
| COc1ccc(-c2cccc(Oc3ccc([N+](=O)[O-])cc3S(=O)(=O)NC(=O)NC(C)(C)C)c2)cc1 [TP20, N-(tert-butylcarbamoyl)-2-((4′-methoxy-[1,1′-biphenyl]-3-yl)oxy)-5-nitrobenzene-sulfonamide] | 45.4 ± 4.07 | 17.1 ± 2.46 | 0.24 ± 0.0298 | almost completely inhibited | did not affect | 0.119 | 16.2 | well tolerated with no safety issues/concerns | All mice survived | ~4 |
